Earlier results as cited in patent EP1219700A1, “Cleaning compositions” (UNILEVER PLC, priority 2000, dated 2002).

Settings: at 20°C; other common materials, by contrast

Row | SMILES | Water Solubility (g/100g)
1 | O=BO[O-].[Na+] [Sodium perborate anhydrous] | 3.7
2 | O=P(O)(O)OP(=O)(O)OP(=O)(O)O [Sodium tripolyphosphate anhydrous] | 15
